Data taken from patent publication US7074807B2, “Compositions and methods for inducing cell death” (Georgetown University, priority 1998, dated 2006).

How the values were obtained:
caspase-3 in DU145 cells = assay: Caspase-3 activity assay (DEVD-AFC); format: cell-based, human; conditions: 2.5 mM, 2 hr
Description: (§1) FIG. 10 illustrates the effect of tempo on caspase-3 activity in prostate cancer cell lines. Cells were treated with 2.5 mM tempo for indicated times in duplicate or triplicate as described in legend to FIG. 2. Representative data from one experiment are shown. Experiments was repeated 2–3 times.
(§2) ApoAlert CPP32 activity/caspase-3 assay kit was used to measure caspase-3 activity in cells according to manufacturer's instructions (Clontech). Briefly, after tempo treatment, cells were washed 3 times with ice-cold PBS and lysed in Clontech cell lysis buffer for 10 min on ice followed by microcentrifugation at 15,000× g for 5 min. Whole cell lysate (50 ug) was incubated for 1 h at 37° C. in caspase-3 reaction mixture containing 10 mM DTT in 2× reaction buffer, 50 uM CPP32 substrate, DEVD-AFC. The amounts of 7-amino-4 trifluoromethyl coumarin (AFC) released were detected by spectrofluorometer (Hitachi F4500) with excitation at 400 nm and emission at 505 nm.

caspase-3 in LNCaP cells = assay: Caspase-3 activity assay (DEVD-AFC); format: cell-based, human; conditions: 2.5 mM, 24 hr
Description: as §1, §2

caspase-3 in PC3 cells = assay: Caspase-3 activity assay (DEVD-AFC); format: cell-based, human; conditions: 2.5 mM, 24 hr
Description: as §1, §2

[1] = Apoptosis assay (annexin V-FITC/propidium iodide flow cytometry); conditions: human
Description: FIGS. (7A1–7A3), (7B1–7B2), (7C1–7C3), (7D1–7D2), (7E1–7E3), (7F1–7F2). […] Cells were grown in serum-free medium overnight in T-25 flasks and treated with tempol (10 mM) or tempo (10 mM) for various times, trypsinized, and then resuspended in 200 ul 1× binding buffer as described in experimental procedures. The cell suspension was double-stained with annexin V-FITC and propidium iodide and analyzed by flow cytometry. Background signal was determined by comparison with double-stained, single-stained, or unstained control cells. (7A1–7A3), (7C1–7C3), and (7E1–7E3) are cytograms showing a relative distribution of viable (V), apoptotic (A), and necrotic (N) cells at 2 h following tempol or tempo treatment of MDA-MB 231 cells (A), PCI-04A cells (C), and PC-3 cells (E). (7B1–7B3), (7D1–7D2), and (7F1–7F2) are time course analyses of MDA-MB 231 cells (B), PCT-04A cells (D), and PC-3 cells (F). 100,000 cells were analyzed at each time point in triplicate (B) or quadruplicate (D and F). Solid bars, 1% ethanol, striped bars, 10 mM tempol, empty bars, 10 mM tempo. […] Data shown are representative from three to four independent experiments. (7B1–7B2), Time course analysis of MDA-MB 231 cells undergoing apoptosis (annexin V-FITC staining) (7B1), or necrosis (propidium iodide staining) (7B2). Values shown are mean±s.d. of triplicate determinations per time point in each treatment category, and representative of three to four independent experiments. […] (7D1–7D2), Time course analysis of PCI-04A cells undergoing apoptosis (annexin V-FITC staining) (7D1), or necrosis (propidium iodide staining) (7D2). Values shown are mean±s.d. of quadruplicate determinations per time point in each treatment category. […] (7F1–7F2), Time course analysis of PC-3 cells undergoing apoptosis (annexin V-FITC staining) (7F1), or necrosis (propidium iodide staining) (7F2). Values shown are mean±s.d. of quadruplicate determinations per time point in each treatment category. Control/C, cells treated with 1% ethanol for 2 h.
Apoptosis Assay—ApoAlert Annexin V apoptosis detection system (Clontech Lab Inc., Palo Alto, Calif.) was used to measure the relative distribution of apoptotic and necrotic cells. Briefly, cells were seeded at a density of 1×10^6 cells per 25 cm^2 tissue culture flask in medium containing 10% FBS overnight, followed by washing twice in serum-free medium. Cells were maintained overnight in serum-free medium and exposed to tempol (10 mM) or tempo (10 mM) for various times. This was followed by rinsing twice with serum-free medium prior to trypsinization, dilution in two volumes of serum-free medium, and centrifugation at 10,000× g. The cell pellet was washed once with PBS and resuspended in 200 ul of 1× binding buffer. The cell suspension was double-labeled with fluorescein isothiocyanate (FITC)-labeled annexin V (10 ul) and propidium iodide (PI) (10 ul) according to the manufacturer's instructions. Unlabeled cells or untreated cells labeled with either FITC-annexin V or PI, or double-labeled served as internal controls for the background signal. The intensity of the dye uptake by cells was detected using FACStar plus Flow Cytometer (Becton Dickerson, Lincoln Park, N.J.), and data were analyzed using Reproman True Facts software (Seattle, Wash.). Viable cells were FITC−/PI−, apoptotic cells were FITC+/PI−, and necrotic cells were FITC+/PI+.

Structure (SMILES): CC1(C)CCCC(C)(C)N1[O] [tempo, 2,2,6,6-tetramethylpiperidine-N-oxyl]
- level of caspase-3 activity (caspase-3 in DU145 cells): ~170%
- increase in caspase activity (caspase-3 in LNCaP cells): ~12 fold
- level of caspase-3 activity (caspase-3 in PC3 cells): ~200%

Structure (SMILES): CC1(C)CC(O)CC(C)(C)N1[O] [tempol, 4-hydroxy-tempo, reference compound]
- viability at 2 h, 10 mM [1]: 92.3%
